Source: patent US9629883B2, “Anticaries compositions and probiotics/prebiotics” (CENTRO SUPERIOR DE INVESTIGACIÓN EN SALUD PÚBLICA (CSISP), priority 2010, dated 2017)
Bridges are numbered along the chain shown (N, C = ends). Where no end group is shown, it is not given here.

Columns and labels:
S. mutans = assay: Growth curves (optical density) of S. mutans in liquid BHI culture; format: cell-based, Streptococcus mutans
Protocol: Subsequently, 50-, 100- and 150-μl volumes of these two fractions, 3-10 kD and 0-3 kD, respectively, were added to a liquid culture of S. mutans and to a liquid culture of S. sobrinus, and the optical density was measured in a 48-well Fluostar luminometer every half-hour, with each treatment in triplicate, for 12-19 hours. […]
In order to corroborate that the peptides identified are those responsible for the inhibitory activity against cariogenic bacteria, the S12E (bacteriocins of bacterial origin) and T5A (peptide of human origin with a structure similar to that of defensins) peptides were chemically synthesised, obtaining approximately 4 mg of each of said peptides with a purity greater than 80%. They were totally re-suspended in 0.1% trichloroacetic acid (TCA) and the experiments designed to test the inhibition of liquid cultures of S. mutans by said chemically-synthesised compounds were performed. […]

S. sobrinus = assay: Growth curves (optical density) of S. sobrinus in liquid BHI culture; format: cell-based, Streptococcus sobrinus; conditions: chemically synthesised peptide, purity greater than 95%, re-suspended in ultrapure water, FIG. 6B
Protocol: Subsequently, […], respectively, were added to a liquid culture of S. mutans and to a liquid culture of S. sobrinus, and the optical density was measured in a 48-well Fluostar luminometer every half-hour, with each treatment in triplicate, for 12-19 hours.

Row | Substance | inhibitory effect on liquid cultures of S. mutans (S. mutans; chemically synthesised peptide, first synthesis without disulfide bridge) | inhibition of the growth of S. mutans at maximum peptide concentration (S. mutans; synthesised peptide with disulfide bridge between cysteines 3 and 12, 80 μg) | inhibition of the growth of S. mutans (S. mutans; synthesised peptide with disulfide bridge between cysteines 3 and 12, different concentrations, FIG. 7) | inhibitory effect on S. sobrinus (S. sobrinus) | inhibitory activity against cultures of S. mutans (S. mutans; chemically synthesised peptide, purity greater than 80%, re-suspended in 0.1% TCA, FIG. 5) | inhibitory effect on S. mutans (S. mutans; chemically synthesised peptide, purity greater than 95%, re-suspended in ultrapure water, FIG. 6A)
1 | T5A peptide: chemically synthesised defensin-type peptide of human origin, 26 amino acids; active form has disulfide bridge between cysteines 3 and 12 (MSCKKESLGSKCNYILLWYQPTESPH; disulfide 3-12; listed as Homo sapiens) | no inhibitory effect | total inhibition of the growth | capable of inhibiting the growth |  |  | 
2 | S12E peptide: chemically synthesised bacteriocin-type anti-microbial peptide of bacterial origin, 39 amino acids, from S12E fosmid (MPFEAVGEARLAARTSRPGDRGPGNRAEESPDSAEQGGG; Streptococcus species) |  |  |  | dose-dependent inhibitory effect | inhibitory activity against cultures of S. mutans was confirmed | dose-dependent inhibitory effect
